Test results reported in patent US20260347373A1, “HETEROCYCLIC COMPOUNDS, COMPOSITIONS THEREOF, AND METHODS OF TREATMENT THEREWITH” (BeOne Medicines I GmbH, priority 2023, published 2026).
Like-named read-outs stand apart in the source and are kept apart here.

Key:
[1] = biological target: KRAS G12D (Homo sapiens, UniProt P01116, G12D); assay: KRAS G12D Probe Displacement Assay (TR-FRET, GDP-loaded); assay type: binding
Text: (§1) The synthetic routes of probe 1 and 2, which have been disclosed in PCT/CN2022/070676, are hereby incorporated herein.

[2] = biological target: WT KRAS (Homo sapiens, UniProt P01116); assay: KRAS WT Probe Displacement Assay (TR-FRET, GDP-loaded); assay type: binding
Text: as §1

[3] = KRAS G12D, read-out: KRAS^G12D Probe Displacement Assay IC50
[4] = KRAS WT, read-out: KRAS^WT Probe Displacement Assay IC50
[5] = KRAS^G12D Probe Displacement Assay IC50, KRAS G12D
[6] = KRAS^WT Probe Displacement Assay IC50, KRAS WT

WT KRAS, sequence (P01116 1-188 isoform P01116-2): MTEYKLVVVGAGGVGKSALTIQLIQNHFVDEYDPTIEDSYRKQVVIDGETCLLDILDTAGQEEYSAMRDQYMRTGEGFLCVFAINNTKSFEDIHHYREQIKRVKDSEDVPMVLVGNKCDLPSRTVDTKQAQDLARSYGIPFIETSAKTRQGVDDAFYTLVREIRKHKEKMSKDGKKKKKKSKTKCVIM
KRAS G12D, sequence (P01116 1-188 isoform P01116-2 G12D): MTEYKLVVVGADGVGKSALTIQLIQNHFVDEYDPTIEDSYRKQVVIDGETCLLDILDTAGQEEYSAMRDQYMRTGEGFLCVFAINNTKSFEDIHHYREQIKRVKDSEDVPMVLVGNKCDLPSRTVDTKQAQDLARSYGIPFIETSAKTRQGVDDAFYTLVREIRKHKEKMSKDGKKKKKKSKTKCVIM

| Structure (SMILES) | IC50 [1, 3] [nM] | IC50 [2, 4] [nM] | IC50 [1, 5] [nM] | IC50 [2, 6] [nM] |
| --- | --- | --- | --- | --- |
| Cc1cc(N)cc(-c2nc3c4c(nc(O[C@@H](C)[C@@H]5CCCN5CCF)nc4c2F)N2C[C@H]4CC[C@H](N4)[C@H]2CCO3)c1C(F)(F)F [Example 250, 3-((6aR,7S,10R)-1-fluoro-13-((S)-1-((S)-1-(2-fluoroethyl)pyrrolidin-2-yl)ethoxy)-5,6,6a,7,8,9,10,11-octahydro-4-oxa-3,11a,12,14,15-pentaaza-7,10-methanocyclohepta[4,5]cycloocta[1,2,3-de]naphthalen-2-yl)-5-methyl-4-(trifluoromethyl)aniline] | < 0.3 | 3 to 1000 |  |  |
| Cc1cc(N)cc(-c2nc3c4c(nc(OCC5(CN6CC=CC6)CC5)nc4c2F)N2C[C@H]4CC[C@H](N4)[C@H]2CCO3)c1C(F)(F)F [Example 111, 3-((6aR,7S,10R)-13-((1-((2,5-dihydro-1H-pyrrol-1-yl)methyl)cyclopropyl)methoxy)-1-fluoro-5,6,6a,7,8,9,10,11-octahydro-4-oxa-3,11a,12,14,15-pentaaza-7,10-methanocyclohepta [4,5]cycloocta [1,2,3-de]naphthalen-2-yl)-5-methyl-4-(trifluoromethyl) aniline] |  |  | < 0.3 | 3 to 1000 |
| Cc1cc(N)cc(-c2nc3c4c(nc(OCC5(CN6CCC(=C(F)F)C6)CC5)nc4c2F)N2C[C@H]4CC[C@H](N4)[C@H]2CCO3)c1C(F)(F)F [Example 149, 3-((6aR,7S,10R)-13-((1-((3-(difluoromethylene)pyrrolidin-1-yl)methyl)cyclopropyl)methoxy)-1-fluoro-5,6,6a,7,8,9,10,11-octahydro-4-oxa-3,11a,12,14,15-pentaaza-7,10-methano-cyclohepta[4,5]cycloocta [1,2,3-de]naphthalen-2-yl)-5-methyl-4-(trifluoromethyl) aniline] |  |  | < 0.3 | 3 to 1000 |
| Cc1cc(N)cc(-c2nc3c4c(nc(OC[C@]5(CN(C)C)CC5(F)F)nc4c2F)N2C[C@H]4CC[C@H](N4)[C@H]2CC(C)O3)c1C(F)(F)F (single isomer, unassigned) [Example 248] | < 0.3 | 0.3 to 3 |  |  |
| Cc1cc(N)cc(-c2nc3c4c(nc(OCC5(CN6CC(F)(F)C6)CC5)nc4c2F)N2C[C@H]4CC[C@H](N4)[C@H]2CCO3)c1C(F)(F)F [Example 82, 3-((6aR,7S,10R)-13-((1-((3,3-difluoroazetidin-1-yl)methyl)cyclopropyl)methoxy)-1-fluoro-5,6,6a,7,8,9,10,11-octahydro-4-oxa-3,11a,12,14,15-pentaaza-7,10-methanocyclohepta [4,5]cycloocta [1,2,3-de]naphthalen-2-yl)-5-methyl-4-(trifluoromethyl)aniline] | 0.3 to 3 | 3 to 1000 |  |  |
| C[C@H](Oc1nc2c3c(nc(-c4cc(N)cc(Cl)c4C(F)(F)F)c(F)c3n1)OCC[C@@H]1[C@@H]3CC[C@H](CN21)N3)[C@@H]1CCCN1C [Example 140, 3-chloro-5-((6aR,7S,10R)-1-fluoro-13-((S)-1-((S)-1-methylpyrrolidin-2-yl)ethoxy)-5,6,6a,7,8,9,10,11-octahydro-4-oxa-3,11a,12,14,15-pentaaza-7,10-methano-cyclohepta[4,5]cycloocta [1,2,3-de]naphthalen-2-yl)-4-(trifluoromethyl)aniline] | < 0.3 | 3 to 1000 |  |  |
| COC[C@H]1[C@H]2C[C@H]2CN1CC1(COc2nc3c4c(nc(-c5cc(N)cc(C)c5C(F)(F)F)c(F)c4n2)OCC[C@@H]2[C@@H]4CC[C@H](CN32)N4)CC1 [Example 183, 3-((6aR,7S,10R)-1-fluoro-13-((1-(((1S,2R,5R)-2-(methoxymethyl)-3-azabicyclo[3.1.0]hexan-3-yl)methyl)cyclopropyl)methoxy)-5,6,6a,7,8,9,10,11-octahydro-4-oxa-3,11a,12,14,15-pentaaza-7,10-methanocyclohepta[4,5]cycloocta[1,2,3-de]naphthalen-2-yl)-5-methyl-4-(trifluoromethyl)aniline] | < 0.3 | 3 to 1000 |  |  |
| Cc1cc(N)cc(-c2nc3c4c(nc(OCC5(CN6CCCC(O)(C(F)(F)F)C6)CC5)nc4c2F)N2C[C@H]4CC[C@H](N4)[C@H]2CCO3)c1C(F)(F)F (stereo partly drawn) [Example 117, 1-((1-((((6aR,7S,10R)-2-(5-amino-3-methyl-2-(trifluoromethyl)phenyl)-1-fluoro-5,6,6a,7,8,9,10,11-octahydro-4-oxa-3,11a,12,14,15-pentaaza-7,10-methanocyclohepta [4,5]cycloocta [1,2,3-de]naphthalen-13-yl)oxy)methyl)cyclopropyl)methyl)-3-(trifluoromethyl) piperidin-3-ol] | < 0.3 | 3 to 1000 |  |  |
| Cc1cc(N)cc(-c2nc3c4c(nc(OCC5(C)CC(F)CN(C)C5)nc4c2F)N2C[C@H]4CC[C@H](N4)[C@H]2CCO3)c1C(F)(F)F (stereo partly drawn) [Example 5, 3-((6aR,7S,10R)-1-fluoro-13-((5-fluoro-1,3-dimethylpiperidin-3-yl)methoxy)-5,6,6a,7,8,9,10,11-octahydro-4-oxa-3,11a,12,14,15-pentaaza-7,10-methanocyclohepta[4,5]cycloocta [1,2,3-de]naphthalen-2-yl)-5-methyl-4-(trifluoromethyl)aniline] | < 0.3 | 3 to 1000 |  |  |
| Cc1cc(N)cc(-c2nc3c4c(nc(OCC5(CN6CC=C(F)CC6)CC5)nc4c2F)N2C[C@H]4CC[C@H](N4)[C@H]2CCO3)c1C(F)(F)F [Example 178, 3-((6aR,7S,10R)-1-fluoro-13-((1-((4-fluoro-3,6-dihydropyridin-1(2H)-yl)methyl)cyclopropyl)methoxy)-5,6,6a,7,8,9,10,11-octahydro-4-oxa-3,11a,12,14,15-pentaaza-7,10-methanocyclohepta[4,5]cycloocta[1,2,3-de]naphthalen-2-yl)-5-methyl-4-(trifluoromethyl)aniline] | < 0.3 | 3 to 1000 |  |  |
| CN1CCN(C)C(C)(COc2nc3c4c(nc(-c5cc(N)cc(Cl)c5C(F)(F)F)c(F)c4n2)OCC[C@@H]2[C@@H]4CC[C@H](CN32)N4)C1 (single isomer, unassigned) [Example 3] | < 0.3 | 3 to 1000 |  |  |
| Cc1cc(N)cc(-c2nc3c4c(nc(OCC5(C)CC(F)CN(C6CCOCC6)C5)nc4c2F)N2C[C@H]4CC[C@H](N4)[C@H]2CCO3)c1C(F)(F)F (single isomer, unassigned) [Example 233] | 0.3 to 3 | 3 to 1000 |  |  |
| Cc1cc(N)cc(-c2nc3c4c(nc(OCC5(CN6CCCOCC6)CC5)nc4c2F)N2C[C@H]4CC[C@H](N4)[C@H]2CCO3)c1C(F)(F)F [Example 103, 3-((6aR,7S,10R)-13-- ((1-((1,4-oxazepan-4-yl)methyl)cyclopropyl)methoxy)-1-fluoro-5,6,6a,7,8,9,10,11-octahydro-4-oxa-3,11a, 12,14,15-pentaaza-7,10-methanocyclohepta [4,5]cycloocta [1,2,3-de]naphthalen-2-yl)-5-methyl-4-(trifluoromethyl)aniline] | < 0.3 | 3 to 1000 |  |  |
| Nc1cc(Cl)c(C(F)(F)F)c(-c2nc3c4c(nc(OCC56C[C@@H](F)CN5C[C@H](F)C6)nc4c2F)N2C[C@H]4CC[C@H](N4)[C@H]2CCO3)c1 [Example 72, 3-chloro-5-((6aR,7S,10R)-13-(((2R,6R)-2,6-difluorotetrahydro-1H-pyrrolizin-7a(5H)-yl)methoxy)-1-fluoro-5,6,6a,7,8,9,10,11-octahydro-4-oxa-3,11a,12,14,15-pentaaza-7,10-methanocyclohepta[4,5]cycloocta [1,2,3-de]naphthalen-2-yl)-4-(trifluoromethyl)aniline] | < 0.3 | 3 to 1000 |  |  |
| Cc1cc(N)cc(-c2nc3c4c(nc(OCC5(CN6CCc7cnn(C)c7C6)CC5)nc4c2F)N2C[C@H]4CC[C@H](N4)[C@H]2CCO3)c1C(F)(F)F [Example 193] | < 0.3 | 3 to 1000 |  |  |
| CO[C@H]1CCN(C)[C@@H]1C(C)Oc1nc2c3c(nc(-c4cc(N)cc(C)c4C(F)(F)F)c(F)c3n1)OCC[C@@H]1[C@@H]3CC[C@H](CN21)N3 (single isomer, unassigned) [Example 75] | < 0.3 | 3 to 1000 |  |  |
| Cc1cc(N)cc(-c2nc3c4c(nc(OCC5(CN6CC[C@H](F)C6)CC5)nc4c2F)N2C[C@H]4CC[C@H](N4)[C@H]2CCO3)c1C(F)(F)F [Example 157, 3-((6aR,7S,10R)-1-fluoro-13-((1-(((S)-3-fluoropyrrolidin-1-yl)methyl)cyclopropyl)methoxy)-5,6,6a,7,8,9,10,11-octahydro-4-oxa-3,11a,12,14,15-pentaaza-7,10-methanocyclohepta[4,5]cycloocta[1,2,3-de]naphthalen-2-yl)-5-methyl-4-(trifluoromethyl)aniline] | < 0.3 | 3 to 1000 |  |  |
| Cc1cc(N)cc(-c2nc3c4c(nc(OCC5(C6CCCN6C)CC5)nc4c2F)N2C[C@H]4CC[C@H](N4)[C@H]2CCO3)c1C(F)(F)F (mixture of isomers) [Example 63, 3-((6aR,7S,10R)-1-fluoro-13-((1-(1-methylpyrrolidin-2-yl)cyclopropyl)methoxy)-5,6,6a,7,8,9,10,11-octahydro-4-oxa-3,11a,12,14,15-pentaaza-7,10-methanocyclohepta[4,5]cycloocta[1,2,3-de]naphthalen-2-yl)-5-methyl-4-(trifluoromethyl)aniline] | < 0.3 | 3 to 1000 |  |  |
| Cc1cc(N)cc(-c2nc3c4c(nc(OCC5(CN6CC=CCC6)CC5)nc4c2F)N2C[C@H]4CC[C@H](N4)[C@H]2CCO3)c1C(F)(F)F [Example 112, 3-((6aR,7S,10R)-13-((1-((3,6-dihydropyridin-1(2H)-yl)methyl)cyclopropyl)methoxy)-1-fluoro-5,6,6a, 7,8,9,10,11-octahydro-4-oxa-3,11a,12,14,15-pentaaza-7,10-methanocyclohepta [4,5]cycloocta [1,2,3-de]naphthalen-2-yl)-5-methyl-4-(trifluoromethyl) aniline] |  |  | < 0.3 | 3 to 1000 |
| COC1CN(CC2(COc3nc4c5c(nc(-c6cc(N)cc(C)c6C(F)(F)F)c(F)c5n3)OCC[C@@H]3[C@@H]5CC[C@H](CN43)N5)CC2(F)F)C1 (single isomer, unassigned) [Example 20] |  |  | < 0.3 | 3 to 1000 |
